# In article PMC8521015, “Salicylic Acid, a Plant Hormone, Suppresses Phytophagous Insect Immune Response by Interrupting HMG-Like DSP1” (Frontiers in Physiology, 2021):
# Target: T1, Se-DSP1 (Spodoptera exigua, UniProt A0A5P9L9K9)
# T1 construct: full-length ORF, 505 residues; pET vector, bacterial expression, 6xHis and V5 tags, Ni-NTA then Sephadex G-100
# T1 sequence (A0A5P9L9K9 1-505): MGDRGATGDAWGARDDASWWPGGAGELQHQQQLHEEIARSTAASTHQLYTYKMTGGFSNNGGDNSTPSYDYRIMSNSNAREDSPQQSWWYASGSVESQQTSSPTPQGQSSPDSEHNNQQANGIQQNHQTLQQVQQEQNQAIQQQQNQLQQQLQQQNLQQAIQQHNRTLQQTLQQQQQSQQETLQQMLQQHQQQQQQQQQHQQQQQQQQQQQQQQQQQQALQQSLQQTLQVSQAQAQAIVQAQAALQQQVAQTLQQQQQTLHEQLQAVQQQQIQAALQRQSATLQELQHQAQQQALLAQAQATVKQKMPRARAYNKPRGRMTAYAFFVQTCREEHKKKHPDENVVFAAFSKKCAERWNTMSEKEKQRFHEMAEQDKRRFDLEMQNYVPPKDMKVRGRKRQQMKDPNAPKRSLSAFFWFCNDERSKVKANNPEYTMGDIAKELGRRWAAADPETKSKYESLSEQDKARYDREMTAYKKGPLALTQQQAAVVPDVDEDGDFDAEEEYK
# Assay: thermal shift assay (Protein Thermal Shift dye, StepOne real-time PCR)
# Conditions: 0-20 μM SA; 500 ng protein; 25-99 °C at 2.96 °C/min; ligand binding equation fit of melting temperatures
structure (smiles),measurement,value
"O=C(O)c1ccccc1O [SA, 2-hydroxybenzoic acid]",Kd,1280 ± 50 nM
